Experimental findings from patent publication US9102614B2, “Naphth-2-ylacetic acid derivatives to treat AIDS” (Gilead Sciences, Inc., priority 2010, dated 2015) are described below.

Read-outs that look alike come from different tables or passages of the source.

This test deals with HIV-IIIb. Description: Test A: Antiviral Assays in MT4 Cells. In kind it is cell-based. Put shortly:
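MT-4 cells pre-infected with HIV-IIIb (0.004 m.o.i.) at 37 °C, then plated with 3-fold serially diluted compound (10 concentrations, quadruplicate, RPMI 1640/10% FBS). After 5 days at 37 °C, cell viability read by CellTiter-Glo chemiluminescence; mock-infected cells run in parallel.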

The mark [1] stands for this setting: Human immunodeficiency virus 1, IIIB, MT4, 120 h, MT-4 cells infected with HIV-IIIb (0.004 m.o.i.), 5 days of incubation, CellTiter-Glo chemiluminescence readout, read-out: EC50.
Setting [2] is: MT-4 cells infected with HIV-IIIb (0.004 m.o.i.), 5 days of incubation, CellTiter-Glo chemiluminescence readout, read-out: EC50.
Setting [3] is: Human immunodeficiency virus 1, IIIB, MT4, 120 h.

As for `Cc1cc2ccc(C#CC(C)(C)N)cc2c(-c2ccc(Cl)cc2)c1[C@H](OC(C)(C)C)C(=O)O` [Compound 98, (S)-2-(7-(3-Amino-3-methylbut-1-ynyl)-1-(4-chlorophenyl)-3-methylnaphthalen-2-yl)-2-tert-butoxyacetic acid], under setting [1], the EC50 (as a rule, the concentration that produces a half-maximal response) was determined as 10 nM.
Still for that read-out and setting: as for `Cc1cc2ccc(C#CC(C)(C)O)cc2c(-c2ccc(Cl)cc2)c1[C@H](OC(C)(C)C)C(=O)O` [Compound 99, (S)-2-tert-Butoxy-2-(1-(4-chlorophenyl)-7-(3-hydroxy-3-methylbut-1-ynyl)-3-methylnaphthalen-2-yl)acetic acid], the figure is 107 nM.
For `Cc1cc2ccc(C#CC3(N)CCCCC3)cc2c(-c2ccc(Cl)cc2)c1[C@H](OC(C)(C)C)C(=O)O` [Compound 100, (S)-2-(7-((1-Aminocyclohexyl)ethynyl)-1-(4-chlorophenyl)-3-methylnaphthalen-2-yl)-2-tert-butoxyacetic acid], under setting [1], the EC50 is 23 nM.
Turning to `Cc1cc2cc(Cl)c(F)cc2c(-c2ccc3c4c(ccnc24)CCO3)c1[C@H](OC(C)(C)C)C(=O)O` [Compound 101, (S)-2-tert-Butoxy-2-((R)-6-chloro-1-(2,3-dihydropyrano[4,3,2-de]quinolin-7-yl)-7-fluoro-3-methylnaphthalen-2-yl)acetic acid], the EC50 under setting [2] turned out to be 41 nM.
`Cc1cc2cc(C(C)C)c(F)cc2c(-c2ccc3c4c(ccnc24)CCO3)c1[C@H](OC(C)(C)C)C(=O)O` [Compound 102, (S)-2-tert-Butoxy-2-((R)-1-(2,3-dihydropyrano[4,3,2-de]quinolin-7-yl)-7-fluoro-6-isopropyl-3-methylnaphthalen-2-yl)acetic acid]: the EC50 under setting [2] turned out to be 37 nM.
As to `Cc1cc2cc(C(F)F)c(F)cc2c(-c2ccc3c4c(ccnc24)CCO3)c1[C@H](OC(C)(C)C)C(=O)O` [Compound 103, (S)-2-tert-Butoxy-2-((R)-6-(difluoromethyl)-1-(2,3-dihydropyrano[4,3,2-de]quinolin-7-yl)-7-fluoro-3-methylnaphthalen-2-yl)acetic acid], the EC50 under setting [2] came out at 26 nM.
`CCc1cc2cc(C)c([C@H](OC(C)(C)C)C(=O)O)c(-c3ccc4c5c(ccnc35)CCO4)c2cc1F` [Compound 104, (S)-2-tert-Butoxy-2-((R)-1-(2,3-dihydropyrano[4,3,2-de]quinolin-7-yl)-6-ethyl-7-fluoro-3-methylnaphthalen-2-yl)acetic acid]: the EC50 under setting [2] was 36 nM.
For `Cc1cc2cc(C3CC3)c(F)cc2c(-c2ccc3c4c(ccnc24)CCO3)c1[C@H](OC(C)(C)C)C(=O)O` [Compound 105, (S)-2-tert-Butoxy-2-((R)-6-cyclopropyl-1-(2,3-dihydropyrano[4,3,2de]quinolin-7-yl)-7-fluoro-3-methylnaphthalen-2-yl)acetic acid], the concentration giving a half-maximal response (EC50) under setting [2] turned out to be 43 nM.
On to `Cc1cc2cc(C#N)c(F)cc2c(-c2ccc3c4c(ccnc24)CCO3)c1[C@H](OC(C)(C)C)C(=O)O` [Compound 106A, (S)-2-tert-Butoxy-2-((R)-6-cyano-1-(2,3-dihydropyrano[4,3,2-de]quinolin-7-yl)-7-fluoro-3-methylnaphthalen-2-yl)acetic acid], for which the EC50 under setting [2] amounted to 86 nM.
As for `Cc1cc2cc(C(N)=O)c(F)cc2c(-c2ccc3c4c(ccnc24)CCO3)c1[C@H](OC(C)(C)C)C(=O)O` [Compound 106B, (S)-2-tert-Butoxy-2-((R)-6-carbamoyl-1-(2,3-dihydropyrano[4,3,2-de]quinolin-7-yl)-7-fluoro-3-methylnaphthalen-2-yl)acetic acid], the EC50 under setting [2] turned out to be 91 nM.
Regarding `CNC(=O)c1cc2cc(C)c([C@H](OC(C)(C)C)C(=O)O)c(-c3ccc4c5c(ccnc35)CCO4)c2cc1F` [Compound 107, (S)-2-tert-Butoxy-2-((R)-1-(2,3-dihydropyrano[4,3,2-de]quinolin-7-yl)-7-fluoro-3-methyl-6-(methylcarbamoyl)naphthalen-2-yl)acetic acid], the EC50 under setting [2] was determined as 92 nM.
Consider `Cc1cc2cc(F)c(F)cc2c(-c2ccc3c4c(ccnc24)CCO3)c1[C@H](OC(C)(C)C)C(=O)O` [Compound 108, (S)-2-tert-Butoxy-2-((R)-1-(2,3-dihydropyrano[4,3,2-de]quinolin-7-yl)-6,7-difluoro-3-methylnaphthalen-2-yl)acetic acid], for which, under setting [3], it took 28 nM to reach a half-maximal effect (EC50).
Turning to `Cc1cc2cc(F)c(F)cc2c(-c2ccc3c4c(ccnc24)CCO3)c1[C@@H](OC(C)(C)C)C(=O)O` [Compound 109, (R)-2-tert-Butoxy-2-((R)-1-(2,3-dihydropyrano[4,3,2-de]quinolin-7-yl)-6,7-difluoro-3-methylnaphthalen-2-yl)acetic acid], the concentration for a half-maximal effect (EC50) under setting [2] is 29000 nM.
Turning to `Cc1cc2c(F)cc(F)cc2c(-c2ccc3c4c(ccnc24)CCO3)c1[C@H](OC(C)(C)C)C(=O)O` [Compound 110, (S)-2-tert-Butoxy-2-((R)-1-(2,3-dihydropyrano[4,3,2-de]quinolin-7-yl)-5,7-difluoro-3-methylnaphthalen-2-yl)acetic acid], under setting [3], a half-maximal effect (EC50) was put at 67 nM.
`Cc1cc2c(Cl)cc(F)cc2c(-c2ccc3c4c(ccnc24)CCO3)c1[C@H](OC(C)(C)C)C(=O)O` [Compound 111, (2S)-2-tert-Butoxy-2-(5-chloro-1-(2,3-dihydropyrano[4,3,2-de]quinolin-7-yl)-7-fluoro-3-methylnaphthalen-2-yl)acetic acid]: under setting [1], the EC50 is 1100 nM.
With `Cc1cc2cc(C)c([C@H](OC(C)(C)C)C(=O)O)c(-c3ccc4c5c(ccnc35)CCO4)c2cc1F` [Compound 112, (S)-2-tert-Butoxy-2-((R)-1-(2,3-dihydropyrano[4,3,2-de]quinolin-7-yl)-7-fluoro-3,6-dimethylnaphthalen-2-yl)acetic acid], the EC50 under setting [2] was found to be 9 nM.
Take `Cc1cc2c(C#N)cc(F)cc2c(-c2ccc3c4c(ccnc24)CCO3)c1[C@H](OC(C)(C)C)C(=O)O` [Compound 113A, (S)-2-tert-Butoxy-2-((R)-5-cyano-1-(2,3-dihydropyrano[4,3,2-de]quinolin-7-yl)-7-fluoro-3-methylnaphthalen-2-yl)acetic acid]: under setting [2], the EC50 worked out at 910 nM.
Regarding `Cc1cc2c(C(N)=O)cc(F)cc2c(-c2ccc3c4c(ccnc24)CCO3)c1[C@H](OC(C)(C)C)C(=O)O` [Compound 113B, (S)-2-tert-Butoxy-2-((R)-5-carbamoyl-1-(2,3-dihydropyrano[4,3,2-de]quinolin-7-yl)-7-fluoro-3-methylnaphthalen-2-yl)acetic acid], the half-maximal effective concentration (EC50) under setting [2] amounted to 460 nM.
Regarding `Cc1cc2c(-c3cncnc3)cc(F)cc2c(-c2ccc3c4c(ccnc24)CCO3)c1[C@H](OC(C)(C)C)C(=O)O` [Compound 114, (S)-2-tert-butoxy-2-((R)-1-(2,3-dihydropyrano[4,3,2-de]quinolin-7-yl)-7-fluoro-3-methyl-5-(pyrimidin-5-yl)naphthalen-2-yl)acetic acid], the EC50 under setting [2] turned out to be 1900 nM.
For the compound `Cc1cc2c(F)c(Cl)ccc2c(-c2ccc3c4c(ccnc24)CCO3)c1[C@H](OC(C)(C)C)C(=O)O` [Compound 115, (S)-2-tert-Butoxy-2-((R)-6-chloro-1-(2,3-dihydropyrano[4,3,2-de]quinolin-7-yl)-5-fluoro-3-methylnaphthalen-2-yl)acetic acid], the concentration for a half-maximal effect (EC50) under setting [2] was found to be 37 nM.
The same measure, in the same setting: as for `Cc1cc2c(Cl)c(C)ccc2c(-c2ccc3c4c(ccnc24)CCO3)c1[C@H](OC(C)(C)C)C(=O)O` [Compound 116, (S)-2-tert-Butoxy-2-((R)-5-chloro-1-(2,3-dihydropyrano[4,3,2-de]quinolin-7-yl)-3,6-dimethylnaphthalen-2-yl)acetic acid], the figure is 16 nM.
With `Cc1cc2c(C)c(C)ccc2c(-c2ccc3c4c(ccnc24)CCO3)c1[C@H](OC(C)(C)C)C(=O)O` [Compound 117, (S)-2-tert-Butoxy-2-((R)-1-(2,3-dihydropyrano[4,3,2-de]quinolin-7-yl)-3,5,6-trimethylnaphthalen-2-yl)acetic acid], under setting [2], the EC50 amounted to 11 nM.
Consider `Cc1cc2c(F)c(C)ccc2c(-c2ccc3c4c(ccnc24)CCO3)c1[C@H](OC(C)(C)C)C(=O)O` [Compound 119, (S)-2-tert-Butoxy-2-((R)-1-(2,3-dihydropyrano[4,3,2-de]quinolin-7-yl)-5-fluoro-3,6-dimethylnaphthalen-2-yl)acetic acid], for which, under setting [2], the EC50 worked out at 11 nM.
Regarding `Cc1cc2c(F)c(C(F)F)ccc2c(-c2ccc3c4c(ccnc24)CCO3)c1[C@H](OC(C)(C)C)C(=O)O` [Compound 121, (S)-2-tert-Butoxy-2-((R)-6-(difluoromethyl)-1-(2,3-dihydropyrano[4,3,2-de]quinolin-7-yl)-5-fluoro-3-methylnaphthalen-2-yl)acetic acid], the EC50 under setting [2] worked out at 14 nM.
For `Cc1c([C@H](OC(C)(C)C)C(=O)O)c(-c2ccc3c4c(ccnc24)CCO3)c2ccccc2c1F` [Compound 122, (2S)-2-tert-butoxy-2-((R)-1-(2,3-dihydropyrano[4,3,2-de]quinolin-7-yl)-4-fluoro-3-methylnaphthalen-2-yl)acetic acid], under setting [2], the EC50 was 36 nM.
As to `Cc1c(C(OC(C)(C)C)C(=O)O)c(-c2ccc(Cl)cc2)c2ccccc2c1Br` (centres unmarked) [Compound 126, 2-(4-Bromo-1-(4-chlorophenyl)-3-methylnaphthalen-2-yl)-2-tert-butoxyacetic acid], the EC50 under setting [1] was found to be 833 nM.
On the same count and under the same terms, as for `Cc1c(C(OC(C)(C)C)C(=O)O)c(-c2ccc(Cl)cc2)c2ccccc2c1C` (centres unmarked) [Compound 127, 2-tert-Butoxy-2-(1-(4-chlorophenyl)-3,4-dimethylnaphthalen-2-yl)acetic acid], the figure is 87 nM; as for `C=Cc1c(C)c(C(OC(C)(C)C)C(=O)O)c(-c2ccc(Cl)cc2)c2ccccc12` (centres unmarked) [Compound 128, 2-tert-Butoxy-2-(1-(4-chlorophenyl)-3-methyl-4-vinylnaphthalen-2-yl)acetic acid], 5300 nM.
Still for that read-out and setting: as for `CCc1c(C)c(C(OC(C)(C)C)C(=O)O)c(-c2ccc(Cl)cc2)c2ccccc12` (centres unmarked) [Compound 129, 2-tert-Butoxy-2-(1-(4-chlorophenyl)-4-ethyl-3-methylnaphthalen-2-yl)acetic acid], the figure is 170 nM.
